Measurements published in article PMC9226124, “Macrocycle-stabilization of its interaction with 14-3-3 increases plasma membrane localization and activity of CFTR” (Nature Communications, 2022).
Where “and” joins values, the source holds several entries; their conditions need not be identical. Equal values may be shown once.

Tests used:
14-3-3β/IRS1 peptide = target: T1, 14-3-3β/IRS1 peptide (Homo sapiens, UniProt P31946); assay: FP assay of 14-3-3 partner protein peptide, IRS1; assay type: binding; details: 100 µM compound
T1 construct: His6 (cleaved yes); made in house
T1 sequence (P31946 1-246): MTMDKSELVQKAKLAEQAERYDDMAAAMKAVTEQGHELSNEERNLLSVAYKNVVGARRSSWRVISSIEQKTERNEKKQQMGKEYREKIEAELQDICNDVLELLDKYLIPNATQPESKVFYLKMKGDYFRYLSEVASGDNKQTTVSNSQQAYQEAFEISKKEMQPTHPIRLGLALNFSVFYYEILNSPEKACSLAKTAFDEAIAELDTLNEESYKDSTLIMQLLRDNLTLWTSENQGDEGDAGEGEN
Procedure: (§1) The FITC-labeled peptides were dissolved in FP buffer (10 mM HEPES pH 7.4, 150 mM NaCl, 0.1% Tween20, 1 mg/mL BSA) to a final concentration of 100 nM or 10 nM. For the dose-response assays, a 14-3-3β concentration of 10 μM was used while titrating the compounds in a two-times dilution series and, for the other assays, a dilution series of 14-3-3β was made with constant concentration of compound. The dilution series were made in 384 Corning Black Round Bottom well plates and their polarization was measured with a Tecan Infinite F500 plate reader (ex. = 485 nm, em. = 535 nm). The method of fitting of the curves was: “log(agonist) vs. response – Variable slope (four parameters)” from GraphPad Prism. The equation is Y = Bottom + (Top-Bottom)/(1 + 10^((LogEC50-X)*HillSlope)).
(§2) Supplementary Figure 2. Stabilization of the interaction between 14-3-3β and a collection of different 14-3-3 partner protein peptides by CY00742 4. […] Background polarization was subtracted from all values, n=3 technical replicates. Source data are provided as a Source Data file.
(§3) (1 picture or pasted object on this page, not shown here)

[1] = target: T2, F508del-CFTR in primary CFBE cells (Homo sapiens, UniProt P13569, DEL508-508); assay: Ussing chamber assay (short-circuit current); assay type: cell-based; parameters: short-circuit current after stimulation by forskolin and genistein: unit not given here; details: 18 h
T2 construct: endogenous in cells; host or cells: primary CFBE cells, air-liquid interface culture
T2 sequence (P13569 with tags, fused parts or gaps DEL508-508): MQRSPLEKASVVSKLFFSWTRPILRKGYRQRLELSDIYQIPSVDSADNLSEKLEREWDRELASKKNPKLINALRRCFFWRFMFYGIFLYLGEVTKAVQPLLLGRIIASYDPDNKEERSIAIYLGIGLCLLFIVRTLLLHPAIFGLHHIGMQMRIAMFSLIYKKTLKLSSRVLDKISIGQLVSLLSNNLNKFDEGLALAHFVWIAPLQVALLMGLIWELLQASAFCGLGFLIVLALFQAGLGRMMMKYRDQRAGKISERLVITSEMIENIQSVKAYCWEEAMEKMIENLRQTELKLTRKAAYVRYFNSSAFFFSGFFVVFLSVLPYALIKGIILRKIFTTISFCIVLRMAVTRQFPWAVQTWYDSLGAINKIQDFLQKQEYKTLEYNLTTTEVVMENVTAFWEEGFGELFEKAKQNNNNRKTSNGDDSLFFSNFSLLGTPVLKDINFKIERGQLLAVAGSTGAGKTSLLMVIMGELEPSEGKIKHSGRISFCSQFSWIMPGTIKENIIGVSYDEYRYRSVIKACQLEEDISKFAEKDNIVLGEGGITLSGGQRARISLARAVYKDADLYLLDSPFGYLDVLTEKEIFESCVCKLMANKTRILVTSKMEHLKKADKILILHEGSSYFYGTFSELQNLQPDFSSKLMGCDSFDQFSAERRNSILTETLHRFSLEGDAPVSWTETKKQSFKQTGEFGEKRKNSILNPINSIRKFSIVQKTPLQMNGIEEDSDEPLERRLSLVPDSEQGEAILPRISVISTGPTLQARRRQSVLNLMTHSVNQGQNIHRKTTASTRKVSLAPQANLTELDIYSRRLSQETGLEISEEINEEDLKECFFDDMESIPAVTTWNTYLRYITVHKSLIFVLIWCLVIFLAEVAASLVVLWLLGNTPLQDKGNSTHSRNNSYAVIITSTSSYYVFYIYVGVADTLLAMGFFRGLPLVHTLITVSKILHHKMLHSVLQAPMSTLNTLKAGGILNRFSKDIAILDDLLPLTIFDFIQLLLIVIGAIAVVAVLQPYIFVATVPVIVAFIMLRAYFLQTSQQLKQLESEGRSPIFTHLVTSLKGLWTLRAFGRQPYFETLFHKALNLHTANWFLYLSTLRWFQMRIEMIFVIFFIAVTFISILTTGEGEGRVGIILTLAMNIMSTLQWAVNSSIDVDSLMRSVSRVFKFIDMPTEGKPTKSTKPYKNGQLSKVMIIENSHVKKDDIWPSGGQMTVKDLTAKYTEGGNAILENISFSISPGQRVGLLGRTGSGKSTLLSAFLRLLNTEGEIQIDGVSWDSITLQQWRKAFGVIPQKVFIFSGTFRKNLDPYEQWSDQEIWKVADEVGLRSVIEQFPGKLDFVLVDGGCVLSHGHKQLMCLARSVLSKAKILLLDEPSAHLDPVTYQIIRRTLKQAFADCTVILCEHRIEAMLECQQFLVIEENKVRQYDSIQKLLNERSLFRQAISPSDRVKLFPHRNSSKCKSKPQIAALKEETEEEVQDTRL
Procedure: Twelve (12) validated hit compounds from the initial screening and focused validation library were tested for their effect on F508del-CFTR trafficking. Baby hamster kidney (BHK) cells expressing 3HA-tagged F508del-CFTR were treated for 24 h with 10 μM compound. After fixation of the cells, a combination of mouse monoclonal anti-HA antibody and anti-mouse IgG conjugated with FITC was used to detect F508del-CFTR that had trafficked to the plasma membrane as described previously. […] Additionally, a fluorescence imaging plate reader (FLIPR) Membrane Potential (FMP) assay was performed. This assay measures real-time membrane potential changes associated with ion channel activation and ion transporter proteins. F508del-CFTR expressing BHK cells were incubated for 24 h with 20 μM compound before treatment with the potentiator genistein, FMP dye, and activator forskolin. The fluorescence intensity is thus a measure for the function of the CFTR protein in the plasma membrane of these cells. The F508del-CFTR corrector VX-809 (lumacaftor) and the triple combination Trikafta® were used as positive controls in this assay. […] Another cellular assay was performed with the Ussing Chamber, which detects and quantifies transport of ions across epithelial tissue. F508del-CFTR expressing cystic fibrosis epithelial (CFBE) cells were treated for 18 h with 20 μM CY007424. After forskolin and genistein stimulation, the short-circuit current of the cells was measured. […]

14-3-3β/BAD peptide = target: T3, 14-3-3β/BAD peptide (Homo sapiens, UniProt P31946); assay: FP assay of 14-3-3 partner protein peptide, BAD; assay type: binding; details: for FP signal: BAD peptide, CY007424 100 μM
T3 construct: His6 (cleaved yes); made in house
T3 sequence (P31946 1-246): T1 sequence (P31946 1-246)
Procedure: as §1, §2, §3

[2] = target: T4, (Homo sapiens, UniProt P13569+P31946); assay: FP assay, 14-3-3β titration at constant compound concentration (apparent KD); assay type: binding; details: FC 100 uM
T4 construct: His6 (cleaved yes); made in house; peptide synthetic
T4 sequence (P13569 747-774 limits assumed, one chain of several): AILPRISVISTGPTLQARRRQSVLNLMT

stabilization of the 14-3-3/IRS1 peptide complex (14-3-3β/IRS1 peptide)	conductance (short-circuit current) in words ([1]; 20 μM, forskolin and genistein stimulation)	stabilization of the 14-3-3/BAD peptide complex (14-3-3β/BAD peptide; 100 µM compound)	FP signal (14-3-3β/BAD peptide; 14-3-3β 2.44141e-7 M)	FP signal (14-3-3β/BAD peptide; 14-3-3β 4.88281e-7 M)	FP signal (14-3-3β/BAD peptide; 14-3-3β 9.76563e-7 M)	FP signal (14-3-3β/BAD peptide; 14-3-3β 1.95313e-6 M)	FP signal (14-3-3β/BAD peptide; 14-3-3β 3.90625e-6 M)	Structure (SMILES)	short-circuit current after stimulation by forskolin and genistein ([1]; 20 μM CY07424, 1 μM VX-809, biological replicates)	Polarization, Everage no 14-3-3 ([2]; average of no 14-3-3 wells)	Polarization, no 14-3-3 ([2]; no 14-3-3, peptide 100 nM, replicates, listed as FC)
some stabilization of the complex	higher conductance than the DMSO control	some stabilization of the complex	59.3333	76.3333 and 74.3333 and 80.3333	77.3333 and 83.3333 and 79.3333	81.3333 and 79.3333 and 82.3333	74.3333 and 75.3333	N=C(N)NCCCC1NCc2ccccc2Sc2ccccc2CNC(=O)C(Cc2ccc(O)cc2)NC(=O)C(CCCN)NC1=O (centres unmarked) [CY007424]	1.424 and 1.182 and 1.788 (2×) and 1.697 and 2.091		
								C=CC(C)(C)OC[C@H]1O[C@H](O[C@@H]2C3=C([C@H](C)COC(C)=O)C[C@H](O)[C@]3(C)/C=C3/[C@@H](COC)CC[C@H]3[C@@H](C)[C@H]2O)[C@H](O)[C@@H](OC(C)=O)[C@@H]1O [FC-A, fusicoccin A, reference compound]		22.00	23 and 21 and 22
